Measurements from patent US20240101527A1, “QUINOLONE CARBOXYLIC DERIVATIVES” (TAIGEN BIOTECHNOLOGY CO., LTD., priority 2019, published 2024).
≈ marks a conversion by molar mass, not a printed value.

Assays:
Assay in all cases: MIC determination, microdilution method (CLSI)
Type in all cases: cell-based
[1] = tested on: Pseudomonas aeruginosa ATCC 27853; conditions: for MIC: Pseudomonas aeruginosa, ATCC27853, Gram(−), 24 h at 37° C., read-out: MIC Pa27853
Description: (§1) The MICs of compounds against all bacterial strains were determined using the microdilution method according to the Clinical and Laboratory Standards Institute guidelines. Bacteria from two or three colonies were picked from freshly streaked culture plates and incubated in culture broth for 8 h. The bacterial culture was then diluted with double-concentrated culture broth to a final concentration of 5×10^5 colony-forming unit (CFU)/mL. Testing compounds were prepared by diluting the stock solution with dimethyl sulfoxide (DMSO). The diluted bacterial suspension was added to an equal volume of a drug solution in a single microwell and incubated for 24 h at 37° C. The minimum concentration in the microwells with no visible bacterial growth was defined as the MIC. All MIC determinations were repeated twice on different days. The MIC of Compounds 1 to 15 against gram(+) and gram(−) bacteria are shown as follows: […]

[2] = tested on: Pseudomonas aeruginosa K2376; conditions: for MIC: Pseudomonas aeruginosa, K2376, Gram(−), 24 h at 37° C., read-out: MIC PaK2376
Description: as §1

[3] = tested on: Staphylococcus aureus ATCC 29213; conditions: for MIC: Staphylococcus aureus, ATCC29213, Gram(+), 24 h at 37° C., read-out: MIC Sa29213
Description: as §1

[4] = tested on: Streptococcus pneumoniae ATCC 49619; conditions: for MIC: Streptococcus pneumoniae, ATCC49619, Gram(+), 24 h at 37° C., read-out: MIC Sp49619
Description: as §1

[5] = MIC of comparative compound / MIC of Compound 11
[6] = MIC of comparative compound / MIC of Compound 6
[7] = MIC of comparative compound / MIC of Compound 2
[8] = MIC of comparative compound / MIC of Compound 7
[9] = MIC of comparative compound / MIC of Compound 1
[10] = MIC of comparative compound / MIC of Compound 8

Structure (SMILES) | MIC [1] [µg/mL] | MIC [2] [µg/mL] | MIC [3] [µg/mL] | MIC [4] [µg/mL] | other results
COc1c(N2CCC(C)C(N)C2)ccc2c(=O)c(C(=O)O)cn(C3CC3F)c12 (stereo not shown) [Compound 1, 7-(3-Amino-4-methyl-piperidin-1-yl)-1-(2-fluoro-cyclopropyl)-8-methoxy-4-oxo-1,4-dihydro-quinoline-3-carboxylic acid] | 0.25 (≈ 0.642 µM) | 1 (≈ 2.57 µM) | 0.031 (≈ 0.0796 µM) | 0.031 (≈ 0.0796 µM) | –
Cc1c(N2C[C@@H](C)C[C@H](N)C2)ccc2c(=O)c(C(=O)O)cn([C@@H]3C[C@@H]3F)c12 [Compound 12] | 1 (≈ 2.68 µM) | 4 (≈ 10.7 µM) | 0.063 (≈ 0.169 µM) | 0.125 (≈ 0.335 µM) | –
CC1CC(N)CN(c2ccc3c(=O)c(C(=O)O)cn(C4CC4)c3c2Cl)C1 (stereo not shown) [F1, reference compound] | – | – | – | – | MIC difference (folds) Pa27853 [1, 5]: 2.0 folds; MIC difference (folds) PaK2376 [2, 5]: 1.0 folds; MIC difference (folds) Sa29213 [3, 5]: 1.0 folds; MIC difference (folds) Sp49619 [4, 5]: 2.0 folds
CCC[C@@H]1CCN(c2ccc3c(=O)c(C(=O)O)cn([C@@H]4C[C@@H]4F)c3c2OC)C[C@H]1N [Compound 3] | 2 (≈ 4.79 µM) | 4 (≈ 9.58 µM) | 0.031 (≈ 0.0743 µM) | 0.031 (≈ 0.0743 µM) | –
COc1c(N2CC[C@H](N)[C@@H](F)C2)ccc2c(=O)c(C(=O)O)cn([C@@H]3C[C@@H]3F)c12 [Compound 14] | 2 (≈ 5.08 µM) | 2 (≈ 5.08 µM) | 0.063 (≈ 0.16 µM) | 0.125 (≈ 0.318 µM) | –
COc1c(N2CC[C@H](N)C2)ccc2c(=O)c(C(=O)O)cn(C3CC3)c12 [C1, reference compound] | – | – | – | – | MIC difference (folds) Sa29213 [3, 6]: 4.0 folds; MIC difference (folds) Sp49619 [4, 6]: 8.0 folds
CCC1CCN(c2ccc3c(=O)c(C(=O)O)cn(CC(F)F)c3c2OC)CC1N (stereo not shown) [B3, reference compound] | – | – | – | – | MIC difference (folds) Pa27853 [1, 7]: 4.0 folds; MIC difference (folds) PaK2376 [2, 7]: 8.0 folds; MIC difference (folds) Sa29213 [3, 7]: 1.0 folds; MIC difference (folds) Sp49619 [4, 7]: 8.1 folds
CCC1CCN(c2ccc3c(=O)c(C(=O)O)cn(C4CC4)c3c2OC)CC1N (stereo not shown) [B1, reference compound] | – | – | – | – | MIC difference (folds) Pa27853 [1, 7]: 2.0 folds; MIC difference (folds) PaK2376 [2, 7]: 2.0 folds; MIC difference (folds) Sa29213 [3, 7]: 8.1 folds; MIC difference (folds) Sp49619 [4, 7]: 1.0 folds
CCC1CCN(c2ccc3c(=O)c(C(=O)O)cn(CC(F)(F)F)c3c2OC)CC1N (stereo not shown) [B2, reference compound] | – | – | – | – | MIC difference (folds) Pa27853 [1, 7]: 16.0 folds; MIC difference (folds) PaK2376 [2, 7]: 4.0 folds; MIC difference (folds) Sa29213 [3, 7]: 1.0 folds; MIC difference (folds) Sp49619 [4, 7]: 4.0 folds
CC1CCN(c2ccc3c(=O)c(C(=O)O)cn(C4CC4)c3c2Cl)CC1N (stereo not shown) [D1, reference compound] | – | – | – | – | MIC difference (folds) Pa27853 [1, 8]: 2.0 folds; MIC difference (folds) PaK2376 [2, 8]: 4.0 folds; MIC difference (folds) Sa29213 [3, 8]: 1.0 folds; MIC difference (folds) Sp49619 [4, 8]: 1.0 folds
NC1CCN(c2ccc3c(=O)c(C(=O)O)cn([C@@H]4C[C@@H]4F)c3c2Cl)CC1 [Compound 15] | 0.25 (≈ 0.658 µM) | 8 (≈ 21.1 µM) | 0.063 (≈ 0.166 µM) | 0.063 (≈ 0.166 µM) | –
CC[C@@H]1CCN(c2ccc3c(=O)c(C(=O)O)cn([C@@H]4C[C@@H]4F)c3c2C)C[C@H]1N [Compound 10] | 0.125 (≈ 0.323 µM) | 0.5 (≈ 1.29 µM) | 0.031 (≈ 0.08 µM) | 0.031 (≈ 0.08 µM) | –
CC1CC(N)CN(c2ccc3c(=O)c(C(=O)O)cn(CC(F)F)c3c2Cl)C1 (stereo not shown) [F2, reference compound] | – | – | – | – | MIC difference (folds) Pa27853 [1, 5]: 4.0 folds; MIC difference (folds) PaK2376 [2, 5]: 4.0 folds; MIC difference (folds) Sa29213 [3, 5]: 16.1 folds; MIC difference (folds) Sp49619 [4, 5]: 16.0 folds
COc1c(N2CC[C@H](N)C2)ccc2c(=O)c(C(=O)O)cn(C(C)CF)c12 (stereo partly shown) [C3, reference compound] | – | – | – | – | MIC difference (folds) Pa27853 [1, 6]: 16.0 folds; MIC difference (folds) PaK2376 [2, 6]: 4.0 folds; MIC difference (folds) Sa29213 [3, 6]: 127.0 folds; MIC difference (folds) Sp49619 [4, 6]: 508.0 folds
C[C@@H]1CCN(c2ccc3c(=O)c(C(=O)O)cn([C@@H]4C[C@@H]4F)c3c2Cl)C[C@H]1N [Compound 7] | 2 (≈ 5.08 µM) | 2 (≈ 5.08 µM) | 0.031 (≈ 0.0787 µM) | 0.031 (≈ 0.0787 µM) | –
COc1c(N2CCC(C)C(N)C2)ccc2c(=O)c(C(=O)O)cn(C3CC3)c12 (stereo not shown) [A2, reference compound] | – | – | – | – | MIC difference (folds) Pa27853 [1, 9]: 32.0 folds; MIC difference (folds) PaK2376 [2, 9]: 32.0 folds; MIC difference (folds) Sa29213 [3, 9]: 4.0 folds; MIC difference (folds) Sp49619 [4, 9]: 4.0 folds
COc1c(N2CCC(N)C2)ccc2c(=O)c(C(=O)O)cn(C3CC3F)c12 (stereo not shown) [C2, reference compound] | – | – | – | – | MIC difference (folds) Pa27853 [1, 6]: 1.0 folds; MIC difference (folds) PaK2376 [2, 6]: 1.0 folds; MIC difference (folds) Sa29213 [3, 6]: 8.0 folds; MIC difference (folds) Sp49619 [4, 6]: 15.9 folds
COc1c(N2C[C@@H](N)C[C@H](F)C2)ccc2c(=O)c(C(=O)O)cn([C@@H]3C[C@@H]3F)c12 [Compound 13] | 2 (≈ 5.08 µM) | 16 (≈ 40.7 µM) | 0.063 (≈ 0.16 µM) | 0.031 (≈ 0.0788 µM) | –
CCC1CCN(c2ccc3c(=O)c(C(=O)O)cn(CC(F)F)c3c2Cl)CC1N (stereo not shown) [E1, reference compound] | – | – | – | – | MIC difference (folds) Pa27853 [1, 10]: 8.0 folds; MIC difference (folds) PaK2376 [2, 10]: 8.0 folds; MIC difference (folds) Sa29213 [3, 10]: 1.0 folds; MIC difference (folds) Sp49619 [4, 10]: 15.6 folds
COc1c(N2CC(C)C(N)C2)ccc2c(=O)c(C(=O)O)cn(C3CC3)c12 (stereo not shown) [A1, reference compound] | – | – | – | – | MIC difference (folds) Sa29213 [3, 9]: 16.1 folds; MIC difference (folds) Sp49619 [4, 9]: 64.5 folds
Cc1c(N2CCC[C@H](N)C2)ccc2c(=O)c(C(=O)O)cn([C@@H]3C[C@@H]3F)c12 [Compound 9] | 0.5 (≈ 1.39 µM) | 2 (≈ 5.56 µM) | 0.031 (≈ 0.0863 µM) | 0.031 (≈ 0.0863 µM) | –
CC[C@@H]1CCN(c2ccc3c(=O)c(C(=O)O)cn([C@@H]4C[C@@H]4F)c3c2Cl)C[C@H]1N [Compound 8] | 0.125 (≈ 0.306 µM) | 0.5 (≈ 1.23 µM) | 0.031 (≈ 0.076 µM) | 0.008 (≈ 0.0196 µM) | –
COc1c(N2CC[C@@H](F)[C@H](N)C2)ccc2c(=O)c(C(=O)O)cn([C@@H]3C[C@@H]3F)c12 [Compound 5] | 4 (≈ 10.2 µM) | 16 (≈ 40.7 µM) | 0.063 (≈ 0.16 µM) | 0.063 (≈ 0.16 µM) | –
C[C@H]1C[C@H](N)CN(c2ccc3c(=O)c(C(=O)O)cn([C@@H]4C[C@@H]4F)c3c2Cl)C1 [Compound 11] | 2 (≈ 5.08 µM) | 4 (≈ 10.2 µM) | 0.031 (≈ 0.0787 µM) | 0.25 (≈ 0.635 µM) | –
CC[C@@H]1CCN(c2ccc3c(=O)c(C(=O)O)cn([C@@H]4C[C@@H]4F)c3c2OC)C[C@H]1N [Compound 2] | 0.5 (≈ 1.24 µM) | 2 (≈ 4.96 µM) | 0.031 (≈ 0.0768 µM) | 0.031 (≈ 0.0768 µM) | –
COc1c(N2CC[C@@H](C(F)(F)F)[C@H](N)C2)ccc2c(=O)c(C(=O)O)cn([C@@H]3C[C@@H]3F)c12 [Compound 4] | 4 (≈ 9.02 µM) | 4 (≈ 9.02 µM) | 0.031 (≈ 0.0699 µM) | 0.031 (≈ 0.0699 µM) | –
